Measurements taken from patent US11766470B2, “Manufacture, formulation and dosing of apraglutide” (VectivBio AG, priority 2020, dated 2023).
Square brackets hold non-standard residues; d marks the D form. Peptide text beside a SMILES is read from it. ξ: configuration not given here. Ile(3ξ) = CCC(C)[C@H](N)C(=O)O; Thr(3ξ) = CC(O)[C@H](N)C(=O)O; Nle = CCCC[C@H](N)C(=O)O

Tested on: patients with SBS-IF
Experiment: Phase 2 placebo-controlled crossover trial in SBS-IF patients (Example 5): urine output, urine sodium, PS volume, oral fluid intake, hydration parameters, plasma L-citrulline, body composition
Format: in vivo, human
Procedure: The following non-limiting example describes results from a Phase 2 clinical trial in which subjects with SBS-IF were treated with the apraglutide formulations of the present disclosure. This Phase 2 trial investigated the safety and efficacy of 5 and 10 mg apraglutide in patients with SBS-IF.
Eight adult patients with SBS-IF were treated with apraglutide compositions of the present disclosure according to Table 6. Briefly, patients with SBS-IF were administered 5 mg apraglutide of the present disclosure or placebo once a week for four weeks. The patients were then administered 10 mg apraglutide of the present disclosure once a week for four weeks. Additionally, there was a washout period of 6-10 weeks between treatments.
The trial described in Example 5 was a double-blind, crossover, randomized, placebo-controlled, phase 2 trial followed by an additional treatment period in an open-label regimen. Eight adult patients (aged ≥18 to ≤80 years) with SBS-IF were enrolled in the trial. Patient eligibility was assessed during a screening visit. The main inclusion criteria were: Patients with SBS secondary to surgical resection of the small bowel with a jejuno- or ileostomy, at least 6 months since last bowel resection, a fecal output of at least 1500 g/day as recorded within the last 18 months, and PS-infusions≥3 times per week for ≥12 months according to the patient's medical record. Patients were excluded, if they had clinical signs of activity in inflammatory bowel disease, a history of cancer within ≤5 years or an inadequate hepatic, kidney, or heart function. Patients were also excluded, if they had received native GLP-2 or a GLP-2 analogue within the last 3 months.
The procedures during each treatment period were consistent.
Efficacy assessments were performed for each treatment period of 29 days. Patients received a paper diary for recording PS volume administration, urine collections and oral fluid intakes at specific time points. Patients performed home 48-hour urine collections at baseline (day −2 to 1), immediately after first treatment injection (day 1 to 3), and at the end of the treatment period (day 27-29, […] after the fourth administration of the trial drug). Urine was collected by the patient in a urine container with volume markings and 48-hour urine volumes were reported in the diary. After completing the 48-hour collection, patients transferred approximately 100 mL of urine from the container to a sample which was delivered at the next patient visit. The amount of sodium excreted per 48 hours was then calculated as the concentration of sodium in the sample multiplied by the total volume of urine collected. During each urine collection, weekly PS volume and content and daily oral fluid intake were kept constant. Since they were kept constant, increases in urine volume were a sign of increased fluid absorption. […] Patients were to adhere to their drinking menu during each urine collection and the concomitant 48-hour oral fluid intake was reported in the diary during each urine collection.
On day 20-22, patients were informed to record their spontaneous oral fluid intake during 48 hours. This measurement was included to investigate whether increased intestinal absorption was associated with a decrease in their spontaneous oral fluid intake.
Between day 4 and 24, PS volume reductions were allowed if deemed clinically necessary by the investigator. […] PS volume reductions were assessed during day 20-22. Patients returned to their baseline PS volume and content during the end of the treatment urine collection (day 27-29). Concomitant medications including proton-pump inhibitors, loperamide, and opiates were kept unchanged and stable throughout the trial. If necessary, adjustments could be made in the drinking menu and prescribed PS volume and content between treatment periods based on discussions between the patient and the investigator.
Body weight was measured using a levelled platform scale. […]

[1] = 5 mg vs 10 mg, Part A+B, day 1-3 after first injection
[2] = 5 mg vs 10 mg, Part A+B, day 20-22
[3] = 5 mg vs 10 mg, Part A+B, day 27-29
[4] = 5 mg vs 10 mg, Part A+B, end of treatment
[5] = 5 mg vs placebo, Part A+B, day 1-3 after first injection
[6] = 5 mg vs placebo, Part A+B, day 20-22
[7] = 5 mg vs placebo, Part A+B, day 27-29
[8] = 5 mg vs placebo, Part A+B, day 27-29, listed as Apraglutide
[9] = 5 mg vs placebo, Part A+B, end of treatment

With `CCCC[C@H](NC(=O)[C@H](CCC(=O)O)NC(=O)[C@H](CC(=O)O)NC(=O)[C@H](CO)NC(=O)[C@H](Cc1ccccc1)NC(=O)[C@H](CO)NC(=O)CNC(=O)[C@H](CC(=O)O)NC(=O)CNC(=O)[C@@H](N)Cc1c[nH]cn1)C(=O)N[C@H](Cc1ccccc1)C(=O)N[C@H](C(=O)N[C@H](C(=O)N[C@@H](CC(C)C)C(=O)N[C@@H](CC(=O)O)C(=O)N[C@@H](CC(C)C)C(=O)N[C@@H](CC(C)C)C(=O)N[C@@H](C)C(=O)N[C@@H](C)C(=O)N[C@@H](CCCNC(=N)N)C(=O)N[C@@H](CC(=O)O)C(=O)N[C@@H](Cc1ccccc1)C(=O)N[C@H](C(=O)N[C@@H](CC(N)=O)C(=O)N[C@@H](Cc1c[nH]c2ccccc12)C(=O)N[C@@H](CC(C)C)C(=O)N[C@H](C(=O)N[C@@H](CCC(N)=O)C(=O)N[C@H](C(=O)N[C@@H](CCCCN)C(=O)N[C@H](C(=O)N[C@H](C(=O)N[C@@H](CC(=O)O)C(N)=O)C(C)O)C(C)CC)C(C)O)C(C)CC)C(C)CC)C(C)CC)C(C)O` (stereo partly drawn) [apraglutide, L-histidyl-glycyl-L-aspartyl-glycyl-L-seryl-L-phenylalanyl-L-seryl-L-aspartyl-L-glutamyl-L-norleucyl-D-phenylalanyl-L-threonyl-Lisoleucyl-L-leucyl-L-aspartyl-L-leucyl-L-leucyl-L-alanyl-L-alanyl-L-arginyl-L-aspartyl-L-phenylalanyl-L-isoleucyl-L-asparaginyl-Ltryptophanyl-L-leucyl-L-isoleucyl-L-glutaminyl-L-threonyl-L-lysyl-L-isoleucyl-L-threonyl-Laspartic acid amide] (H-HGDGSFSDE[Nle][dF][Thr(3ξ)][Ile(3ξ)]LDLLAARDF[Ile(3ξ)]NWL[Ile(3ξ)]Q[Thr(3ξ)]K[Ile(3ξ)][Thr(3ξ)]D-NH2) the “Patients with increased relative urine volume output compared to placebo (exceeding 10%)” value (5 mg) was 6 out of 8, the “Absolute urine output, adjusted mean change from baseline” value [1] was −26 (−462 to 409); mL/day and the “Relative urine output, adjusted mean change from baseline” value [1] was −12 (−43 to 19); %. For the same compound, the “Urine sodium excretion (%), adjusted mean change from baseline” value [1] was −43(−149 to 63); %, the “Urine sodium excretion, adjusted mean change from baseline” value [1] was −1 (−22 to 20); mmol/day and the “Oral fluid intake, adjusted mean change from baseline” value [2] was −119 (−396 to 157); mL/day. The “PS volume, adjusted mean change from baseline” value [2] was −380 (−851 to 91); mL/day, the “Relative PS volume, adjusted mean change from baseline” value [2] was −15 (−38 to 9); % and the “Relative oral fluid intake, adjusted mean change from baseline” value [2] was −7 (−17 to 3); %. For the same compound, the “Absolute urine output, adjusted mean change from baseline” value [3] was 84 (−514 to 682); mL/day, the “Relative urine output, adjusted mean change from baseline” value [3] was −14 (−51 to 23); % and the “Urine sodium excretion (%), adjusted mean change from baseline” value [3] was 266 (−266 to 798); %. The “Urine sodium excretion, adjusted mean change from baseline” value [3] was 32 (−37 to 101); mmol/day, the “Albumin, adjusted mean change from baseline” value [4] was 1.0 (−0.8 to 2.9); g/L and the “Aldosterone, adjusted mean change from baseline” value [4] was −151 (−3,570 to 3,268); pmol/L. For the same compound, the “Body weight, adjusted mean change from baseline” value [4] was −0.6 (−2.4 to 1.3); kg, the “Bone mineral content, adjusted mean change from baseline” value [4] was 12 (−57 to 82); g and the “CO2 total, adjusted mean change from baseline” value [4] was 1.0 (−1.4 to 3.4); mmol/L. For the same compound, the “Creatinine, adjusted mean change from baseline” value [4] was 4.6 (−12.3 to 21.5); umol/L, the “Fat body mass, adjusted mean change from baseline” value [4] was −1.44 (−2.92 to 0.04); kg and the “Hematocrit, adjusted mean change from baseline” value [4] was −0.4 (−1.2 to 0.4); vol/fr. For the same compound, the “Lean body mass, adjusted mean change from baseline” value [4] was 0.12 (−3.00 to 3.24); kg, the “Plasma L-citrulline, adjusted mean change from baseline” value [4] was −3.6 (−19.8 to 12.6); μmol/L and the “Protein, adjusted mean change from baseline” value [4] was −0.3 (−4.5 to 3.9); g/L. For the same compound, the “Relative body weight, adjusted mean change from baseline” value [4] was −1 (−4 to 2); %, the “Relative bone mineral content, adjusted mean change from baseline” value [4] was 0 (−3 to 3); % and the “Relative fat body mass, adjusted mean change from baseline” value [4] was −7 (−16 to 1); %. For the same compound, the “Relative lean body mass, adjusted mean change from baseline” value [4] was −0 (−8 to 7); %, the “Relative plasma L-citrulline, adjusted mean change from baseline” value [4] was −23 (−74 to 29); % and the “Urea, adjusted mean change from baseline” value [4] was 0.3 (−1.3 to 1.9); mmol/L. For the same compound, the “Fluid composite effect, estimated difference between the two doses” value (5 mg vs 10 mg, post-hoc, Part A+B) was 594, the “Absolute urine output, adjusted mean change from baseline” value [5] was −38 (−456 to 381); mL/day and the “Relative urine output, adjusted mean change from baseline” value [5] was 6 (−24 to 35); %. For the same compound, the “Urine sodium excretion (%), adjusted mean change from baseline” value [5] was 65 ( −36 to 166); %, the “Urine sodium excretion, adjusted mean change from baseline” value [5] was 3 (−17 to 23); mmol/day and the “PS volume, adjusted mean change from baseline” value [6] was −89 (−543 to 366); mL/day. The “Relative PS volume, adjusted mean change from baseline” value [6] was −13 (−36 to 9); %, the “Relative oral fluid intake, adjusted mean change from baseline” value [6] was −9 (−18 to 1); % and the “Absolute urine output, adjusted mean change from baseline” value [7] was 711 (132 to 1,289); mL/day. The “Relative urine output, adjusted mean change from baseline” value [7] was 48 (12 to 84); %, the “Urine sodium excretion (%), adjusted mean change from baseline” value [7] was 166 (−342 to 675); % and the “Urine sodium excretion, adjusted mean change from baseline” value [7] was 56 (−10 to 123); mmol/day. For the same compound, the “Absolute urine output, adjusted mean change from baseline” value [8] was 711 mL/day, the “Relative urine output, adjusted mean change from baseline” value [8] was 48% and the “Urine sodium excretion, adjusted mean change from baseline” value [8] was 56 mmol/day. For the same compound, the “Albumin, adjusted mean change from baseline” value [9] was −0.0 (−1.8 to 1.8); g/L, the “Body weight, adjusted mean change from baseline” value [9] was 1.9 (0.1 to 3.7); kg and the “Bone mineral content, adjusted mean change from baseline” value [9] was −4 (−73 to 66); g. The “CO2 total, adjusted mean change from baseline” value [9] was 0.3 (−2.0 to 2.6); mmol/L, the “Creatinine, adjusted mean change from baseline” value [9] was −9.7(−25.8 to 6.4); umol/L and the “Fat body mass, adjusted mean change from baseline” value [9] was 1.77 (0.29 to 3.24); kg. For the same compound, the “Hematocrit, adjusted mean change from baseline” value [9] was 0.6 (−0.2 to1.4); vol/fr, the “Lean body mass, adjusted mean change from baseline” value [9] was 0.64 (−2.49 to 3.77); kg and the “Plasma L-citrulline, adjusted mean change from baseline” value [9] was 17.6 (2.0 to 33.2); μmol/L. The “Protein, adjusted mean change from baseline” value [9] was −0.4 (−4.2 to 3.4); g/L.
